The text below walks through data of US20230391765A1, “HETEROBIFUNCTIONAL COMPOUNDS AS DEGRADERS OF ENL” (ICAHN SCHOOL OF MEDICINE AT MOUNT SINAI, priority 2020, published 2023).

The target of series [1] is T1, ENL (Homo sapiens, UniProt Q03111).
T1 construct: Cells were lysed and expression of endogenous ENL was assessed by Western blot analysis; host or cells: MV4;11
T1 sequence (Q03111 1-559): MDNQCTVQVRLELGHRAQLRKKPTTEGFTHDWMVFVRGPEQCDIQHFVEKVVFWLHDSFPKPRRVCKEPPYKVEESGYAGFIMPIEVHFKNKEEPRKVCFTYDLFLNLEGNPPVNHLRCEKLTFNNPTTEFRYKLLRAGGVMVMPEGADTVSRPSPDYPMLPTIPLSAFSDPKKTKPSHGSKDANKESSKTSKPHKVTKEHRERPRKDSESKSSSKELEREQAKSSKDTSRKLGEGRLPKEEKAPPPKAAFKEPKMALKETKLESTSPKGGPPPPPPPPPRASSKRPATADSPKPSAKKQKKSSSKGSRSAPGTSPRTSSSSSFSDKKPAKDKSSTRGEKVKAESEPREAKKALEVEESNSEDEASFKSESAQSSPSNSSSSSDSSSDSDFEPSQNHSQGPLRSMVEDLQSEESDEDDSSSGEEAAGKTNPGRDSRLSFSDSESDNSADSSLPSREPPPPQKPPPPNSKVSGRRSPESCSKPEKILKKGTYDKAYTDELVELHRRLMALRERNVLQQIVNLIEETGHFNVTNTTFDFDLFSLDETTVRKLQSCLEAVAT
Nature of the series: Western blot of ENL protein levels in MV4; 11 cells. It is filed as cell-based. The gist of the method:
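MV4;11 cells treated versus DMSO at 1 and 10 μM for 24 h or 6 h, or at 0.3-30 μM for 24 h; time course at 4 μM over 12-36 h. Proteasome dependence tested with 1 μM degrader ± 1 μM MG132 for 6 h. ENL (and GAS41) levels in total lysates assessed by Western blot with GAPDH/β-actin loading controls.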

The target in series [2] is T1, ENL. Put plainly: Western blot of ENL protein levels in MOLM13 cells. Format: cell-based. The gist of the method: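 Leukemia cells (MOLM13, MV4;11, Jurkat) treated with degraders in DMSO at 0–10 μM for 6 h or 24 h, or at 4 μM (MV4;11) / 8 μM (MOLM13) over 12–36 h. ENL levels read by Western blot of total lysates, GAPDH/β-actin loading controls; DMSO vehicle control.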

The subject of series [3] is ENL-dependent MOLM13 leukemia cells. Put plainly: Cell viability (CellTiter-Glo), MOLM13 cells. Particulars: MOLM13 cells, 0.5, 1, 2 and 4 μM for 72 h. Format: cell-based. How it is done:
MV4; 11 (FIG. 13A), MOLM13 (FIG. 13B) and Jurkat (FIG. 13C) cells were seeded at 2×10^5 cells/mL density and treated with DMSO or indicated compounds 0.5, 1, 2 and 4 μM for 72 h. Cell viability was measured using CellTiter-Glo reagent (Promega) and relative cell viability was calculated by normalization to DMSO samples.
MV4; 11 or MOLM13 cells were seeded at 0.2×10^6 cells/mL density. Cells were treated with DMSO or ENL degraders at indicated concentrations. Each treatment was done in triplicates. After 72 h treatment, 100 μL of cell suspension from each treatment was mixed with 25 μL of CellTiter-Glo reagent (Promega) and incubated for 10 min before the luminescence signals were detected on a plate reader.
On the technique in general: In ATP-based viability assays light output follows the ATP content of the culture.

A further series deals with MV4; 11 cells. Nature of the series: Apoptosis assay (FITC Annexin V), MV4; 11 cells. It is filed as cell-based. Conditions: 11 cells, 1, 2 and 4 μM for 24 h. The method, then:
(§1) Apoptotic cells were measured by the FITC Annexin V Apoptosis Detection Kit (BD Biosciences).
(§2) MV4; 11 or MOLM13 cells were seeded at 0.2×10^6 cells/mL density. Cells were treated with DMSO or ENL degraders at indicated concentrations. Each treatment was done in triplicates. After 24 h treatment, cells were collected and washed with ice-cold PBS once and resuspended in 250 μL of 1× binding buffer containing 5 μL of FITC-Annexin V and PI (BD Biosciences). After 15 min incubation at room temperature in the dark, 250 μL of 1× binding buffer was added and flow cytometry analysis was performed.

The test system of another series is MOLM13 cells. Put plainly: Apoptosis assay (FITC Annexin V), MOLM13 cells. It is filed as cell-based. Conditions: MOLM13 cells, 1, 2 and 4 μM for 24 h. The method, then: as §1, §2
The nature of series [4]: In vivo pharmacokinetics (PK) study, plasma concentration. More on the design: species or system C57BL/6 mice. Particulars: mice, single 50 mg/kg IP injection. The method, then: Three C57BL/6 mice at 6-8 weeks of age were used in PK study for each time point. After a single dose intraperitoneal (IP) injection of ENL degrader LQ076-122 (50 mg/kg), plasma concentrations of degrader were measured at 6 time points (0.5, 1, 2, 4, 8 and 12 h) from each test animal. The concentrations of LQ076-122 in plasma were maintained above 2 μM for 6 h with the maximum plasma concentration of about 6 μM.
The standard mouse PK study was conducted by Charles River Laboratories. Three C57BL/6 mice at 6-8 weeks of age were used for each time point. After a single dose intraperitoneal (IP) injection of ENL degrader (50 mg/kg), plasma concentrations of degrader were measured at […] (in hours: 0.5, 1, 2, 4, 8 and 12 h) from each test animal.

On to `Cc1ncsc1-c1ccc(CNC(=O)[C@@H]2C[C@@H](O)CN2C(=O)[C@@H](NC(=O)CCCCCCCCCCNC(=O)c2ccc(C(=O)Nc3ccc4[nH]c(CN5CCC[C@@H]5C)nc4c3)cc2)C(C)(C)C)cc1` [LQ076-122, N^1-(11-(((S)-1-((2S,4R)-4-hydroxy-2-((4-(4-methylthiazol-5-yl)benzyl)carbamoyl)pyrrolidin-1-yl)-3,3-dimethyl-1-oxobutan-2-yl)amino)-11-oxoundecyl)-N^4-(2-(((S)-2-methylpyrrolidin-1-yl)methyl)-1H-benzo[d]imidazol-5-yl)terephthalamide], for which the “reduction of ENL protein levels” value on ENL [1] (11 cells, 0-8 μM for 24 h) is “reduced ENL protein levels in a concentration-dependent manner”; on ENL [1] (11 cells, 10 μM, 24 h) it was “effective in reducing ENL protein levels”; on ENL [1] (11 cells, 0.3, 1, 3 and 10 μM for 12 and 24 h), “reduced ENL protein levels in a concentration- and time-dependent manner”; on ENL [2] (0-8 μM for 24 h) it was “reduced ENL protein levels in a concentration-dependent manner”. In addition, the “reduction of ENL protein levels, time course” value on ENL [1] (11 cells, 4 μM for 12, 16, 20, 24 and 36 h) is recorded as “reduced ENL protein levels in a time-dependent manner”; on ENL [2] (8 μM for 12, 16, 20, 24 and 36 h) it was “reduced ENL protein levels in a time-dependent manner”. In addition, the “reduction of ENL protein level” value on ENL [1] (11 cells, 0.3, 1, 3, 10 and 30 μM for 24 h) is listed as “selectively reduced the ENL protein level”. Besides, the “suppression of cell growth (relative cell viability)” value in series [3] was “selectively suppressed cell growth”. Besides, the induction of apoptosis result in the series on MV4; 11 cells and in the series on MOLM13 cells was “induced apoptosis” in each case. In addition, the “concentration in plasma maintained for 6 h” value in series [4] is given as “above 2 μM”. The maximum plasma concentration entry in series [4] is given as “about 6 μM”.
